These are literature values, as cited in patent publication US5985868A, “Methods and compositions for treating androgen-dependant diseases using optically pure R-(-) casodex” (Sepracor Inc., priority 1998, dated 1999).

Data set [1] concerns prostatic acid phosphatase. The conditions noted are these: human volunteers, 10-50 mg p.o. per day.
For data set [2] the following is noted: racemic casodex at 30 or 50 mg.
The test system of data set [3] is serum testosterone, estradiol and LH. The settings on record: observed at all doses (10-50 mg p.o. per day).
For data set [4] the following is noted: estimated from oral studies.
Data set [5] deals with glucocorticoid activity.
Data set [6] has as its system peripheral androgen receptors.
The conditions of data set [7]: control of morning sickness during pregnancy.
For data set [8] the following is noted: in vivo.
Data set [9] concerns beta-adrenergic. The settings on record: L-form versus D-enantiomer.
The subject of data set [10] is androgen. The settings on record: in vivo.
Data set [11] has as its system progesterone receptors. The settings on record: at 5 nm.
Data set [12] deals with glucocorticoid receptors. The conditions noted are these: at 5 nm.

Turning to `CC(O)(CS(=O)(=O)c1ccc(F)cc1)C(=O)Nc1ccc(C#N)c(C(F)(F)F)c1` (racemic) [racemic casodex, 4'-cyano-3-[(4-fluorophenyl)sulfonyl]-2-hydroxy-2-methyl-3'-(trifluoromethyl)propionanilide], the “reduction in prostatic acid phosphatase levels” value in [1] is on record as 50 to 60%. Besides, in data set [2], the “patients reporting gynecomastia and breast tenderness” value was “Over half the patients”; the “patients reporting hot flushes” value is recorded as “about 20%”; the “patients reporting nausea and vomiting, bone pain, confusion, constipation, headache, diarrhea, dyspepsia, fatigue, dizziness or rash” value was “less than 10%”. The “elevations of serum testosterone, estradiol and LH” value in data set [3] is on record as “Significant but mild elevations”. For the same compound, in data set [4], the average half life entry is recorded as “about 8 days”. Besides, the glucocorticoid activity entry in data set [5] is “no progestational or glucocorticoid activity”. Also, the “agonist component at peripheral androgen receptors” value in data set [6] is “little if any agonist component”.
`O=C1CCC(N2C(=O)c3ccccc3C2=O)C(=O)N1` [D-enantiomer of thalidomide, thalidomide]: the sedative effect result in data set [7] was “safe and effective sedative”.
Consider `O=C1CCC(N2C(=O)c3ccccc3C2=O)C(=O)N1` [L-enantiomer of thalidomide, thalidomide], for which the teratogenicity result in data set [8] is reported as “potent teratogen”.
As for `CC(C)NCC(O)COc1cccc2ccccc12` [L-form of propranolol, propranolol], the “potency relative to the D-enantiomer” value in [9] is 100 times.
As to `C[C@](O)(CS(=O)(=O)c1ccc(F)cc1)C(=O)Nc1ccc(C#N)c(C(F)(F)F)c1` [R-(-)-casodex, N-[4-cyano-3-(trifluoromethyl)phenyl]-3-[(4-fluorophenyl)sulfonyl]-2-hydroxy-2-methylpropanamide], the “ED50 in inhibiting androgen in rats” value in [10] is on record as 0.5 mg/kg.
As to `C[C@]1(O)CC[C@H]2[C@@H]3CCC4=CC(=O)CCC4=C3C=C[C@@]21C` [[^3 H]-R1881, methyltrienolone], the “binding to progesterone receptors” value in [11] is reported as “approximately 5%”. For the same compound, in data set [12], the “binding to glucocorticoid receptors” value is listed as “approximately 5%”.
